Source: patent publication US4379158A, “Antisecretory imidazole amidine compounds, composition and method of use” (Yamanouchi Pharmaceutical Co., Ltd., priority 1977, dated 1983)
Counter-ions that a name gives are not always drawn.

Columns and labels:
[1] = target: T1, Histamine H2-receptor (Cavia porcellus, UniProt P47747); test: Histamine H2-receptor blocking activity of test compounds in isolated guinea-pig atria (histamine-induced tachycardia); format: cell-based, guinea-pigs; conditions: 5×10^-6 M histamine, Krebs-Henseleit solution, 36° C., mean ± S.E. from 5 experiments, read-out: ED50 (dose producing a 50% blockade of chronotropic action of histamine)
T1 construct: Atrial preparations isolated from guinea-pigs; from tissue; host or cells: isolated guinea-pig atria
Protocol: Atrial preparations isolated from guinea-pigs were suspended in Krebs-Henseleit solution at 36° C. (Mitchell, I. et al. Europ. J. Pharmacol., 34, 95, 1975). The dose producing a 50% blockade of chronotropic action of 5×10^-6 M histamine was obtained from the dose-respose curve in which the inhibition percentage was plotted semilogarithmically against dose.

[2] = tested on: gastric acid secretion; test: Effect of test compounds on gastric acid secretion in pylorus-ligated rats; format: in vivo; conditions: 50 mg/kg intraduodenal, immediately after pylorus ligation, 7 rats, mean ± S.E., *p < 0.01; for Gastric contents, Volume: control 3.2 ± 0.3; for Gastric contents, Acid output: control 380 ± 40.1
Protocol: Rats weighing about 200 g. were deprived of food for 24 hours and their pylorus was ligated after an abdominal incision under ether anesthesia (Shay, H. et al.: Gastroenterol., 5, 43, 1945). Test compounds were intraduodenally given immediately after the pylorus ligation. The animals were sacrificed 4 hours after drug administration and gastric contents were collected. The gastric juice was titrated with 0.05 N NaOH to pH 7.0 for measurement of acidity.

[3] = tested on: H2-receptor; conditions: Ash and Schild 1966; Black et al. 1972; cited from earlier work

T1 sequence (P47747 whole entry): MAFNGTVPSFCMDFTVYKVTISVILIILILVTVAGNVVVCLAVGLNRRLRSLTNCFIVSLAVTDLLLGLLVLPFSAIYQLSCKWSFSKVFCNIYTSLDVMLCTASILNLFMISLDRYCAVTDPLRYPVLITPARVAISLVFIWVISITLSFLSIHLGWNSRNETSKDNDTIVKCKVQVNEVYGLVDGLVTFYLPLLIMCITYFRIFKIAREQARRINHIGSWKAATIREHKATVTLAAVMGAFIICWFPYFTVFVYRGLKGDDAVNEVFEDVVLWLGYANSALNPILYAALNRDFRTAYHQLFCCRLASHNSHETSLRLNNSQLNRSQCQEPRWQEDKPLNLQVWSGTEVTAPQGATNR

Row | SMILES | IC50 [1] [nM] | Gastric contents, Volume [2] [ml/4 hours/rat] | Gastric contents, Acid output [2] [μEq/4 hours/rat] | inhibition/antagonism of the effects of histamine on gastric acid secretion and heart rate in isolated atrium (in words) [3]
1 | CN(C)Cc1ccc(CSCCC(N)=NC#N)o1 [Example 41, NCyano-3-[5-(dimethylaminomethyl)furfurylthio]-propionamidine] | 2100 | 1.5 ± 0.2 | 97 ± 17.2 | 
2 | C#CCN=C(N)CCSCc1ccc(CN(C)C)o1 [Example 42, 3-[5-(Dimethylaminomethyl)furfurylthio]-N2-propynylpropionamidine dihydrochloride] |  | 1.7 ± 0.3 | 137 ± 31.5 | 
3 | COc1ccc(CN(CCN(C)C)c2ccccn2)cc1 [mepyramine] |  |  |  | not inhibited
4 | C/N=C(\S)NCCSCc1[nH]cnc1C [metiamide] |  |  |  | antagonized

More lines, main results first:

Row | IC50 [1] [nM] | SMILES | Gastric contents, Volume [2] [ml/4 hours/rat] | Gastric contents, Acid output [2] [μEq/4 hours/rat] | inhibition/antagonism of the effects of histamine on gastric acid secretion and heart rate in isolated atrium (in words) [3]
5 | 2300 | C#CCN=C(N)CCSCc1nc[nH]c1C [Example 40, N2-Propynyl-3-[(5-methylimidazol-4-yl)methylthio]-propionamidine dihydrochloride] |  |  | 
6 | 900 | Cc1[nH]cnc1CSCCC(N)=NC(N)=O [Example 44, N-carbamoyl-3-(4-methyl-5-imidazolylmethylthio)-propionamidine] | 1.4 ± 0.2 | 79 ± 9.0 | 
